From ChEMBL document CHEMBL1140660, “Synthesis and structure-activity relationship of a novel, non-hydroxamate series of TNF-alpha converting enzyme inhibitors” (Bioorg Med Chem Lett, 2007)

Assays:
[1] = target: Disintegrin and metalloproteinase domain-containing protein 17 (Sus scrofa, UniProt O77636); test: Inhibition of porcine TACE
Stromelysin-1 = Stromelysin-1 (Homo sapiens, UniProt P08254); test: Inhibition of MMP3
Collagenase 3 = Collagenase 3 (Homo sapiens, UniProt P45452); test: Inhibition of MMP13
Matrilysin = target: T1, Matrilysin (Homo sapiens, UniProt P09237); test: Inhibition of MMP7
T1 sequence (P09237 whole entry): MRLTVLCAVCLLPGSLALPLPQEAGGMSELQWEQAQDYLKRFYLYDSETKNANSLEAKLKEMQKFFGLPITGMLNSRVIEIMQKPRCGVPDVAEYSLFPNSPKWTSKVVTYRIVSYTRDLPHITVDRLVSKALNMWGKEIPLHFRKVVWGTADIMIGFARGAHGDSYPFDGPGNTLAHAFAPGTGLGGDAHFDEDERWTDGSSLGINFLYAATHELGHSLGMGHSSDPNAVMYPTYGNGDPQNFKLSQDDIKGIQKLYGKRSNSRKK

[2] = target: 72 kDa type IV collagenase (Homo sapiens, UniProt P08253); test: Inhibition of MMP2
72 kDa type IV collagenase, sequence (P08253 whole entry): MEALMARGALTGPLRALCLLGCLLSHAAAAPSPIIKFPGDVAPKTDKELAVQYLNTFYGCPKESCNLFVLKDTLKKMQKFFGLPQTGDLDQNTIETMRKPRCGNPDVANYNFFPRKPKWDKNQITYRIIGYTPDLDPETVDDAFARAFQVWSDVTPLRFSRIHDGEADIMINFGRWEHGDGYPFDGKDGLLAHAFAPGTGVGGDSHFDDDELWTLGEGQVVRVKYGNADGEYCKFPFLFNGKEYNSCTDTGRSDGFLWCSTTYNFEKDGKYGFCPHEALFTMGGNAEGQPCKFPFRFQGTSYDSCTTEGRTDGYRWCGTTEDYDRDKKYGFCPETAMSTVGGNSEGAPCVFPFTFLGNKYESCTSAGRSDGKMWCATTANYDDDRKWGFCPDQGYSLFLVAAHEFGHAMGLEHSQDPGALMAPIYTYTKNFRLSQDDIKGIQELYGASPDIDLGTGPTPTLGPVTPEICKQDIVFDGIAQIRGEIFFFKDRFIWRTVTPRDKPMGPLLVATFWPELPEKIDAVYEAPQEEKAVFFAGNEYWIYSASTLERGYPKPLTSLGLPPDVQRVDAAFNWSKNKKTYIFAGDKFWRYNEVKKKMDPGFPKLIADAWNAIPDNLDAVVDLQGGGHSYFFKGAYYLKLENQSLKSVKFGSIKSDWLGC

[3] = target: Macrophage metalloelastase (Homo sapiens, UniProt P39900); test: Inhibition of MMP12
Macrophage metalloelastase, sequence (P39900 whole entry): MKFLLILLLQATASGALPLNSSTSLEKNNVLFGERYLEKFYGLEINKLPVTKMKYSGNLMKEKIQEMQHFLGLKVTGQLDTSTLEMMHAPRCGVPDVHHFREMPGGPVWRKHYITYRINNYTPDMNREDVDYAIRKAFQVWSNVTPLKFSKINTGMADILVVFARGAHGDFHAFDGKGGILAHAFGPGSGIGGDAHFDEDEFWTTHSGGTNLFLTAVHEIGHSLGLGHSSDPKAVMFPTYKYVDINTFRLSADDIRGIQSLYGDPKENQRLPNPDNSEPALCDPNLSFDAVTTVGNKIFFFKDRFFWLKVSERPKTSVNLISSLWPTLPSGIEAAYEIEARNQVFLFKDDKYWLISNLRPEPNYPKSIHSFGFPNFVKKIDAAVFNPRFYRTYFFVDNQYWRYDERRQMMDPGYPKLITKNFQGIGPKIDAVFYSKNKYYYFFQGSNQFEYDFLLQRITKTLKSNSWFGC

Stromelysin-1, sequence (P08254 whole entry): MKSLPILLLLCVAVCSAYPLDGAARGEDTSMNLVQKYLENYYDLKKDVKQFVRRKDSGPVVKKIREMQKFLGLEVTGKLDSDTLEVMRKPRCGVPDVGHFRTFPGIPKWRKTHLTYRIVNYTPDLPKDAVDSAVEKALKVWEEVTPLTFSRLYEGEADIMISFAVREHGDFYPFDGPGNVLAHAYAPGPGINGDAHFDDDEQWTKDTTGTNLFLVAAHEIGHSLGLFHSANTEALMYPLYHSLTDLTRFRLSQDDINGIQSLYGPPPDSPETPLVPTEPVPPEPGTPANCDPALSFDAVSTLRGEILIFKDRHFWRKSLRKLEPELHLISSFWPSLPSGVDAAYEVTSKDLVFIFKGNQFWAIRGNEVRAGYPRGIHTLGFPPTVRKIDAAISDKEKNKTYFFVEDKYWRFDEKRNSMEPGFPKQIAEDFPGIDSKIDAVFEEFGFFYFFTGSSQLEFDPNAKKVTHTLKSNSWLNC
Disintegrin and metalloproteinase domain-containing protein 17, sequence (O77636 whole entry, the tested form may be a part): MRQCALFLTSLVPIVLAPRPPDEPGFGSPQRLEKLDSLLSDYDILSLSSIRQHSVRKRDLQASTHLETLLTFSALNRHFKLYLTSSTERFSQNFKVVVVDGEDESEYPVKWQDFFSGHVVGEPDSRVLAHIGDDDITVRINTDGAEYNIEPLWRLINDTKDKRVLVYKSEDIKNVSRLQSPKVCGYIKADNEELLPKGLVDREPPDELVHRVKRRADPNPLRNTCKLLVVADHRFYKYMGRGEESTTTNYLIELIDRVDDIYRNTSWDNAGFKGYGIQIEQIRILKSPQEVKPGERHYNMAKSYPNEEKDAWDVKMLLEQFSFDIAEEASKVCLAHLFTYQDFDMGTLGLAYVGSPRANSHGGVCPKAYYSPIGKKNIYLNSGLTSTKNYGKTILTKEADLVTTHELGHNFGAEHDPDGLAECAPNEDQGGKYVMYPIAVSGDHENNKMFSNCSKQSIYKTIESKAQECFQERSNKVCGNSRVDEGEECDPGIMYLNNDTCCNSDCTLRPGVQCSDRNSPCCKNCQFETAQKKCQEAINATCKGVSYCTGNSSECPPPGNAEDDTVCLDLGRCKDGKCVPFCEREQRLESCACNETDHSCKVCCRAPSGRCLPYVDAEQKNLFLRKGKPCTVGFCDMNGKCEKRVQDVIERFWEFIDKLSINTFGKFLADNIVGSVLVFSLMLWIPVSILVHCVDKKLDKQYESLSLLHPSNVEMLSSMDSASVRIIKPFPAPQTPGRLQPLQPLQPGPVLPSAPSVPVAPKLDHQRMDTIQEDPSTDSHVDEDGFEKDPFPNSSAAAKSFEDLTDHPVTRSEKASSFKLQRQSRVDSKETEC

Row | Compound | IC50 [1] [µM] | Ki (Stromelysin-1) [µM] | Ki (Collagenase 3) [µM] | Ki (Matrilysin) [µM] | Ki [2] [µM] | Ki [3] [µM]
1 | Cc1cc(COc2ccc([C@]3(N)CCN([C@H](CC(C)C)c4n[nH]c(=S)[nH]4)C3=O)cc2)c2ccccc2n1 | > 1 | > 4.5 | > 5.03 | > 6.37 | > 3.33 | > 6.02
2 | Cc1cc(COc2ccc(C(=O)NCc3n[nH]c(=S)[nH]3)cc2)c2ccccc2n1 | > 1 | > 4.5 | > 5.03 | > 6.37 | > 3.33 | > 6.02
3 | Cc1cc(COc2ccc(C(=O)NC3(Cc4n[nH]c(=S)[nH]4)CCN(C(=O)OC(C)(C)C)CC3)cc2)c2ccccc2n1 | 0.036 | > 4.5 | > 5.03 | > 6.37 | > 3.33 | > 6.02
4 | Cc1cc(COc2ccc(C(=O)N[C@@H]3CCNC[C@@H]3c3n[nH]c(=S)[nH]3)cc2)c2ccccc2n1 (relative stereo) | 0.043 | > 4.5 | > 5.03 | > 6.37 | > 3.33 | > 6.02
5 | O=C(NCCCc1n[nH]c(=S)[nH]1)c1ccc(OCc2ccnc3ccccc23)cc1 | 0.294 | > 4.5 | > 5.03 | > 6.37 | > 3.33 | > 6.02
6 | Cc1cc(COc2ccc(C(=O)N[C@@H]3CCOC[C@@H]3c3n[nH]c(=S)[nH]3)cc2)c2ccccc2n1 (relative stereo) | 0.0081 | > 4.5 | > 5.03 | > 6.37 | > 3.33 | > 6.02
7 | Cc1cc(COc2ccc(C(=O)N[C@@H]3CN(C(=O)OC(C)(C)C)C[C@@H]3c3n[nH]c(=S)[nH]3)cc2)c2ccccc2n1 (relative stereo) | 0.014 | > 4.5 | > 5.03 | > 6.37 | > 3.33 | 3.56
8 | Cc1cc(COc2ccc(C(=O)NC(C)(C)Cc3n[nH]c(=S)[nH]3)cc2)c2ccccc2n1 | 0.055 | > 4.5 | > 5.03 | > 6.37 | > 3.33 | > 6.02
9 | Cc1cc(COc2ccc(C(=O)N[C@@H]3CN(C(=O)OC(C)(C)C)CC[C@@H]3c3n[nH]c(=S)[nH]3)cc2)c2ccccc2n1 (relative stereo) | 0.075 | > 4.5 | > 5.03 | > 6.37 | > 3.33 | > 6.02
10 | CCCN1C[C@H](c2n[nH]c(=S)[nH]2)[C@H](NC(=O)c2ccc(OCc3cc(C)nc4ccccc34)cc2)C1 (relative stereo) | 0.0099 | > 4.5 | 2.46 | > 6.37 | > 3.33 | > 6.02
11 | Cc1cc(COc2ccc(C(=O)NCCc3n[nH]c(=S)[nH]3)cc2)c2ccccc2n1 | 0.21 | > 4.5 | > 5.03 | > 6.37 | > 3.33 | > 6.02
12 | CC(=O)N1C[C@H](c2n[nH]c(=S)[nH]2)[C@H](NC(=O)c2ccc(OCc3cc(C)nc4ccccc34)cc2)C1 (relative stereo) | 0.0015 | > 4.5 | > 5.03 | > 6.37 | > 3.33 | > 6.02
13 | Cc1cc(COc2ccc(C(=O)N[C@@H]3CNC[C@@H]3c3n[nH]c(=S)[nH]3)cc2)c2ccccc2n1 (relative stereo) | 0.092 | > 4.5 | > 5.03 | > 6.37 | > 3.33 | > 6.02
14 | Cc1cc(COc2ccc(C(=O)NC3(Cc4n[nH]c(=S)[nH]4)CCOCC3)cc2)c2ccccc2n1 | 0.024 | 2.1 | 0.753 | 0.635 | 1.6 | 0.223

Further lines, results first:

Row | IC50 [1] [µM] | Ki (Stromelysin-1) [µM] | Ki (Collagenase 3) [µM] | Ki (Matrilysin) [µM] | Ki [2] [µM] | Ki [3] [µM] | Compound
15 | 0.031 | > 4.5 | > 5.03 | > 6.37 | > 3.33 | > 6.02 | Cc1cc(COc2ccc(C(=O)N[C@@H]3CN(C(C)C)CC[C@@H]3c3n[nH]c(=S)[nH]3)cc2)c2ccccc2n1 (relative stereo)
16 | 0.028 | > 4.5 | > 5.03 | > 6.37 | > 3.33 | > 6.02 | Cc1cc(COc2ccc(C(=O)N[C@@H]3CN(S(C)(=O)=O)CC[C@@H]3c3n[nH]c(=S)[nH]3)cc2)c2ccccc2n1 (relative stereo)
17 | 0.0094 | > 4.5 | > 5.03 | > 6.37 | > 3.33 | > 6.02 | Cc1cc(COc2ccc(C(=O)N[C@@H]3CNCC[C@@H]3c3n[nH]c(=S)[nH]3)cc2)c2ccccc2n1 (relative stereo)
18 | 0.073 | > 4.5 | > 5.03 | > 6.37 | > 3.33 | > 6.02 | C#CCN1CC[C@H](c2n[nH]c(=S)[nH]2)[C@H](NC(=O)c2ccc(OCc3cc(C)nc4ccccc34)cc2)C1 (relative stereo)
19 | 0.0025 | > 4.5 | 3.14 | > 6.37 | > 3.33 | > 6.02 | CC(=O)N1CC[C@H](c2n[nH]c(=S)[nH]2)[C@H](NC(=O)c2ccc(OCc3cc(C)nc4ccccc34)cc2)C1 (relative stereo)
20 | 0.041 | > 4.5 | > 5.03 | > 6.37 | > 3.33 | > 6.02 | Cc1cc(COc2ccc(C(=O)N[C@@H]3CCC[C@@H]3c3n[nH]c(=S)[nH]3)cc2)c2ccccc2n1 (relative stereo)
21 | 0.015 | > 4.5 | > 5.03 | > 6.37 | > 3.33 | > 6.02 | CCCN1CC[C@H](c2n[nH]c(=S)[nH]2)[C@H](NC(=O)c2ccc(OCc3cc(C)nc4ccccc34)cc2)C1 (relative stereo)
22 | 0.016 | > 4.5 | > 5.03 | 5.37 | > 3.33 | 0.958 | Cc1cc(COc2ccc(C(=O)N[C@@H]3CN(C)CC[C@@H]3c3n[nH]c(=S)[nH]3)cc2)c2ccccc2n1 (relative stereo)
